Literature values, collected in patent US9061061B2, “Method of treating dysglycemia and glucose excursions” (ORX PHARMACEUTICAL CORPORATION, priority 2008, dated 2015).

Conditions: single 850 mg tablet

**Q.** For CN(C)C(=N)N=C(N)N [metformin], which “lower peak plasma concentration (Cmax) with food compared to fasting” value is on record?
**A.** ~40%

**Q.** And the “prolongation of time to peak plasma concentration (Tmax) with food” value?
**A.** 35 min
